The values below are quoted from earlier work in patent US20240261236A1, “METHODS OF USING NMDA RECEPTOR ANTAGONISTS” (Seelos Therapeutics, Inc., priority 2021, published 2024).

For data set [1] the following is noted: Leung and Baillie 1986; cited from earlier work.
The target of the next data set is NMDA receptor. As to conditions: binds to the NMDA receptor; Moaddel et al. 2013; cited from earlier work.
The conditions of data set [2]: 56 mg or 84 mg doses; Spravato label; cited from earlier work.
For data set [3] the following is noted: 56 mg or 84 mg dose; Spravato label; cited from earlier work.

As to `NC1(c2ccccc2Cl)CCCC(O)C1=O` (centres unmarked) [6-hydroxynorketamine], the anesthetic activity entry in data set [1] was “no anesthetic or locomotor activity”. One may read the Ki as the equilibrium dissociation constant of an inhibitor or competing ligand from its target. `N[C@@]1(c2ccccc2Cl)CCC[C@@H](O)C1=O` [(2R,6R)-hydroxynorketamine]: the inhibitory constant (Ki) on NMDA receptor is above 100 µM.

In the case of `N[C@]1(c2ccccc2Cl)CCC[C@H](O)C1=O` [(2S,6S)-hydroxynorketamine], on NMDA receptor, the inhibitory constant (Ki) was around 21.2 µM. Take `N[C@@]1(c2ccccc2Cl)CCCCC1=O` [(R)-norketamine]: at NMDA receptor, the inhibitory constant (Ki) was around 26.5 µM. Take `CN[C@]1(c2ccccc2Cl)CCCCC1=O` [(S)-ketamine, (S)-2-(2-chlorophenyl)-2-(methylamino)cyclohexanone]: the “patients who developed dissociative changes on the CADSS assessment” value in data set [2] is reported as 61%-69%. For the same molecule, the “subjects who developed sedation” value in data set [3] is given as 48-61%. For `N[C@]1(c2ccccc2Cl)CCCCC1=O` [(S)-norketamine], the inhibitory constant (Ki) at NMDA receptor is around 2.25 µM. In the case of `NC1(c2ccccc2Cl)CCCCC1=O` (centres unmarked) [norketamine], in data set [1], the anesthetic activity entry is “anesthetic activity”.
